Like-named read-outs stand apart in the source and are kept apart here.
Experiments:
Test in all cases: tryptophan fluorescence titration
Assay type in all cases: binding
[1] = biological target: T1, CaiT (Escherichia coli, UniProt P31553)
T1 construct: full-length with C-terminal 6His tag (pET21a), expressed in E. coli JW0039 (delta caiT), Ni-NTA purified; homotrimer (D288A and D288R mostly monomeric); DDM-solubilized or in proteoliposomes
Text: (§1) tryptophan fluorescence titration on CaiT

[2] = biological target: T2, CaiT (Escherichia coli, UniProt P31553, D288A)
T2 construct: full-length with C-terminal 6His tag (pET21a), expressed in E. coli JW0039 (delta caiT), Ni-NTA purified; homotrimer (D288A and D288R mostly monomeric); DDM-solubilized or in proteoliposomes
Text: as §1

[3] = biological target: T3, CaiT (Escherichia coli, UniProt P31553, D288R)
T3 construct: full-length with C-terminal 6His tag (pET21a), expressed in E. coli JW0039 (delta caiT), Ni-NTA purified; homotrimer (D288A and D288R mostly monomeric); DDM-solubilized or in proteoliposomes
Text: as §1

Row | Kd ([1]; read-out: γ-butyrobetaine / Kd) [mM] | Kd ([2]; read-out: γ-butyrobetaine / Kd) [mM] | Kd ([3]; read-out: γ-butyrobetaine / Kd) [mM] | Kd ([1]; read-out: L-carnitine / Kd) [mM] | Kd ([2]; read-out: L-carnitine / Kd) [mM] | Kd ([3]; read-out: L-carnitine / Kd) [mM] | Compound
1 | 3.4 ± 0.1 | 3.3 ± 1.3 | 11.4 ± 4.4 |  |  |  | C[N+](C)(C)CCCC(=O)[O-] [γ-butyrobetaine]
2 |  |  |  | 3.3 ± 0.2 | 1.8 ± 0.9 | 1.9 ± 1 | C[N+](C)(C)C[C@H](O)CC(=O)O [L-carnitine]

— paper PMC6406002, “Comparison of the functional properties of trimeric and monomeric CaiT of Escherichia coli” (Scientific Reports, 2019)
